What was measured:
human TRPV1 channel [1] = target: T1, human TRPV1 channel (Homo sapiens, UniProt Q8NER1); assay: Calcium imaging (Fura Red-AM), HEK293 cells transfected with hTRPV1-GFP; format: cell-based; conditions: 1 µM Cap; hTRPV1-GFP HEK293; pH 7.4, room temperature; n: 58; vs DMSO **** p < 0.0001
T1 construct: host or cells: HEK293
Method: (§1) Dr. Alejandro Maureira, Universidad Católica del Maule, Chile, generously provided HEK293 cells. The cells were cultured in T75 flasks (Corning Inc., Corning, NY, USA) in a humidified atmosphere at 37 °C with 5% CO2 in Dulbecco’s Modified Eagle Medium (DMEM) with high glucose (Cytiva, Marlborough, MA, USA), supplemented with 10% fetal bovine serum (Cytiva, Marlborough, MA, USA) and a mixture of 100 IU/mL penicillin and 100 µg/mL streptomycin (Corning Inc., Corning, NY, USA) in a CO2CELL incubator (MMM Group, Munich, Germany). This procedure was used to maintain the cells for all of the experiments.
(§2) HEK293 cells were transfected with the human TRPV1 channel coupled to GFP in its C-terminus (TRPV1-GFP, catalog #: RG217653, Origene, Rockville, MD, USA). […] Transfections were conducted using Lipofectamine 3000 (Invitrogen, Waltham, MA, USA), according to the manufacturer’s instructions. Experimental protocols were performed 24 h post-transfection.
(§3) The data were analyzed and plotted using GraphPad software v10.0.2. We used the Shapiro–Wilk test to determine the data distribution. […] Statistically significant values were considered when p values were * p < 0.05, ** p < 0.01, *** p < 0.001, and **** p < 0.0001.

[2] = system: HEK293-untransfected cells; assay: Calcium imaging (Fura Red-AM), untransfected HEK293 cells; format: cell-based; conditions: 1 µM Cap, confocal, pH 7.4, room temperature, n: 26
Method: Dr. Alejandro Maureira, Universidad Católica del Maule, Chile, generously provided HEK293 cells. The cells were cultured in T75 flasks (Corning Inc., Corning, NY, USA) in a humidified atmosphere at 37 °C with 5% CO2 in Dulbecco's Modified Eagle Medium (DMEM) with high glucose (Cytiva, Marlborough, MA, USA), supplemented with 10% fetal bovine serum (Cytiva, Marlborough, MA, USA) and a mixture of 100 IU/mL penicillin and 100 μg/mL streptomycin (Corning Inc., Corning, NY, USA) in a CO2CELL incubator (MMM Group, Munich, Germany). This procedure was used to maintain the cells for all of the experiments. […] Then, the cells were washed and cultured during the experiment with the extracellular solution containing (in mM) 140 NaCl, 5 KCl, 2 CaCl2, 1 MgCl2, 10 HEPES, and 6 glucose, with pH adjusted to 7.4 with NaOH [13]. Calcium images were obtained every 3 s for 30 min using Leica Stellaris 5 spectral confocal microscopy. […] Fura Red emissions in bound and unbound states were acquired around their peaks at 610 nm and 670 nm, respectively. The bound and unbound fluorescence of Fura Red-AM was acquired using Leica LAS X v.4.3.0.24308 software. The Fura Red-Am bound and unbound ratio was calculated (405 nm/488 nm) and plotted. […] The data were analyzed and plotted using GraphPad software v10.0.2. […]

human TRPV1 channel [3] = target: T1, human TRPV1 channel; assay: Whole-cell voltage-clamp recording of TRPV1 currents, HEK293 cells with human TRPV1-GFP; format: cell-based; conditions: 1 µM Cap; voltage ramp -80 to 80 mV, +80 mV; n: 7; **** p < 0.0001; room temperature
Method: as §1, §2
Untransfected and transfected HEK293 cells with the human TRPV1-GFP were recorded using a whole-cell voltage clamp. Cells were cultured in 15 mm round coverslips pretreated with 0.1 mg/mL poly-L-lysine (Gibco, Billings, MT, USA) and transfected with TRPV1-GFP plasmid. TRPV1-GFP-positive cells were identified using a 405 nm LED light in a Nikon Eclipse Ts2 inverted microscope. Borosilicate pipettes (nº 1B150F-4, World Precision Instruments, Sarasota, FL, USA) of 2.8’5 MΩ were used. Pipettes were pulled with a P-97 Micropipette Puller (Sutter Instruments, Novato, CA, USA). The extracellular solution contained (in mM) 140 NaCl, 5 KCl, 2 CaCl2, 1 MgCl2, 10 HEPES, and 6 glucose at pH 7.4. The internal solution contained (in mM) 140 CsCl, 4 MgCl2, 10 EGTA, and 10 HEPES-CsOH at pH 7.3. All the experiments were recorded using a HEKA EPC9 amplifier. The holding potential was −80 mV. A 500 ms voltage ramp from −80 to 80 mV was applied to record TRPV1 currents. The sample frequency was 50 kHz, and the signals were filtered at 2.9 kHz using PatchMaster software. Data were analyzed using Clampfit v.7 software (Molecular Devices, San Jose, CA, USA). The extracellular solution and ligands were administered using a VC-8 perfusion system (~2 mL/s, Warner Instruments, Holliston, MA, USA). We used capsaicin (Cayman Chemicals, nº 92350), SB366791 (nº 11019, Cayman Chemicals, Ann Arbor, MI, USA), and RVD-Hp (Synbio Technologies, Monmouth Junction, NJ, USA). We used dimethyl sulfoxide (DMSO, Sigma-Aldrich, St. Louis, MO, USA) and untransfected cells as controls. Electrophysiological recordings were performed at room temperature.
as §3

[4] = system: untransfected HEK293 cells; assay: Whole-cell voltage-clamp recording, untransfected HEK293 cells; format: cell-based; conditions: 1 µM Cap; voltage ramp -80 to 80 mV; room temperature
Method: as §1
Untransfected and transfected HEK293 cells with the human TRPV1-GFP were recorded using a whole-cell voltage clamp. Cells were cultured in 15 mm round coverslips pretreated with 0.1 mg/mL poly-L-lysine (Gibco, Billings, MT, USA) and transfected with TRPV1-GFP plasmid. TRPV1-GFP-positive cells were identified using a 405 nm LED light in a Nikon Eclipse Ts2 inverted microscope. Borosilicate pipettes (nº 1B150F-4, World Precision Instruments, Sarasota, FL, USA) of 2.8’5 MΩ were used. Pipettes were pulled with a P-97 Micropipette Puller (Sutter Instruments, Novato, CA, USA). […] All the experiments were recorded using a HEKA EPC9 amplifier. […] Data were analyzed using Clampfit v.7 software (Molecular Devices, San Jose, CA, USA). […]
The data were analyzed and plotted using GraphPad software v10.0.2. […]

TRPV1 channel = system: TRPV1 channel; design: method as in 4 sources, ref [12]; anandamide and 2-AG ref [13],[14],[15],[16] ||| ref [88],[89] = [88]; PMID 27281200; doi:10.1038/nature17964; 88. Gao Y. Cao E. Julius D. Cheng Y. TRPV1 structures in nanodiscs reveal mechanisms of ligand and lipid action Nature 2016 534 347 351 10.1038/nature17964 27281200 PMC4911334 || [89]; PMID 37117175; doi:10.1038/s41467-023-38162-9; 89. Neuberger A. Oda M. Nikolaev Y.A. Nadezhdin K.D. Gracheva E.O. Bagriantsev S.N. Sobolevsky A.I. Human TRPV1 structure and inhibition by the analgesic SB-366791 Nat. Commun. 2023 14 2451 10.1038/s4 ||| ref [90] = [90]; PMID 38698206; doi:10.1038/s41594-024-01299-2; 90. Arnold W.R. Mancino A. Moss F.R. Frost A. Julius D. Cheng Y. Structural basis of TRPV1 modulation by endogenous bioactive lipids Nat. Struct. Mol. Biol. 2024 1 9 10.1038/s41594-024-01299-2 3869820 ||| ref [67] = [67]; PMID 29117570; doi:10.1016/j.celrep.2017.10.063; 67. Nersesyan Y. Demirkhanyan L. Cabezas-Bratesco D. Oakes V. Kusuda R. Dawson T. Sun X. Cao C. Cohen A.M. Chelluboina B. Oxytocin Modulates Nociception as an Agonist of Pain-Sensing TRPV1 Cell Rep. 2; conditions: cited from earlier work
Description: The transient receptor potential (TRP) channels family involves several subfamilies, including the vanilloid (TRPVs) group. TRPV1, a member of the TRPV subfamily, is a non-selective cationic homotetramer channel. It is known to be activated by various stimuli, including temperature, capsaicin (the principal compound in chili peppers), and endocannabinoids such as anandamide (AEA) and 2-arachidonoylglycerol (2-AG). The TRPV1 channel protein is found in the central (CNS) and peripheral nervous system (PNS). In the CNS, TRPV1 is expressed in the prefrontal cort ... || Molecular dynamics (MD) simulations allow studying protein dynamics at an atomic level under physiological conditions, enhancing our understanding of various proteins, including ion channels like TRPV1 [82]. These simulations provide insight into their function, conformational changes, and interactions with different ligands.

[5] = cited from earlier work
Description: Capsaicin creams and patches have been used in the treatment of muscle pain, neuropathic pain, arthritis, and migraines. […] CNTX-4975 has been developed as a treatment option for pain in individuals with osteoarthritis.

thermal hyperalgesia = conditions: capsazepine administration; ref [12],[32],[33],[34]; cited from earlier work

T1 sequence (Q8NER1 whole entry): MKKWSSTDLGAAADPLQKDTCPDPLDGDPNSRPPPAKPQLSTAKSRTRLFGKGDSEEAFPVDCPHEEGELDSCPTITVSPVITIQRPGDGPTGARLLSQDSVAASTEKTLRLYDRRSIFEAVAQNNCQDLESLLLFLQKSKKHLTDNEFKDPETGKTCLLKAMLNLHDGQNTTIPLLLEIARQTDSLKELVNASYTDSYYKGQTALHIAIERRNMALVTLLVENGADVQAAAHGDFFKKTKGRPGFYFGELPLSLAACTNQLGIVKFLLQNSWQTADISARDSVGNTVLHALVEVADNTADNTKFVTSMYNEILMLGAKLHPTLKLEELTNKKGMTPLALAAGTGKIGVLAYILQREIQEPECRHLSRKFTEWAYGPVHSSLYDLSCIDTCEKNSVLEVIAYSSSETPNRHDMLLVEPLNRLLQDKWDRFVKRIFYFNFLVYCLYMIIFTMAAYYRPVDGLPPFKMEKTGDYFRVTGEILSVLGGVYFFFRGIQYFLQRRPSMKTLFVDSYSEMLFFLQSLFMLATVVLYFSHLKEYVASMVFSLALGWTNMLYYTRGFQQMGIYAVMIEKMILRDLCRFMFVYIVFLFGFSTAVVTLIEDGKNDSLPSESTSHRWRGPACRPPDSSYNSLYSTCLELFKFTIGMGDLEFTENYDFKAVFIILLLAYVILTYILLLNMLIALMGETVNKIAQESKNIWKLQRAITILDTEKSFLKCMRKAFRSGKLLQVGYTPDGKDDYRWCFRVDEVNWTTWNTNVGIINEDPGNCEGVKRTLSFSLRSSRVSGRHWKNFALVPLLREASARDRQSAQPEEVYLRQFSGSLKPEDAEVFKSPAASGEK

SMILES	Intracellular Ca^2+ concentration (Fura Red ratio 405 nm/488 nm), agonist response (human TRPV1 channel [1])	Intracellular Ca^2+ concentration (Fura Red ratio 405 nm/488 nm) in untransfected cells [2]	Cap-induced TRPV1 currents (human TRPV1 channel [3])	TRPV1 currents in untransfected cells [4]	TRPV1 activation (TRPV1 channel; capsaicin ref [12], anandamide and 2-AG ref [13],[14],[15],[16])	Efficacy and bioavailability in vivo [5]	Water solubility [5]	Side effects ([5]; oral administration, ref [98])	TRPV1 binding mode of antagonists (TRPV1 channel; requiring four molecules to induce channel closure, ref [88],[89])	Thermal hyperalgesia (thermal hyperalgesia)
COc1cc(CNC(=O)CCCC/C=C/C(C)C)ccc1O [capsaicin]	produced an increase in intracellular Ca^2+ concentration	did not induce an increase in intracellular Ca^2+ concentration	showed Cap-induced currents	did not observe TRPV1 currents	activated	limited efficacy and bioavailability in vivo	poor water solubility	irritation, orofacial pain, and gastric ulcers	–	–
Oc1cc2c(cc1O)CN(C(=S)NCCc1ccc(Cl)cc1)CCC2 [capsazepine]	–	–	–	–	–	–	–	–	bind to the vanilloid pocket and compete with capsaicin	reduces thermal hyperalgesia

— paper PMC11430712, “The Endocannabinoid Peptide RVD-Hemopressin Is a TRPV1 Channel Blocker” (Biomolecules, 2024)
